Results on four compounds are retold here after ChEMBL document CHEMBL5050826, “Compositions and methods for treating Friedreich's ataxia” (2019).

Active and inactive are the calls of the source. The calls are words filed in the database; no cut-off is given here.

The subject of test [1] is Flp-In-293. Put plainly: Induction of frataxin accumulation in human Flp-In-293 cells stably expressing frataxin K147R mutant at 10 uM assessed as increase in frataxin levels measured after 24 hrs by Western blot analysis. It counts as functional, cell-based.
The target in test [2] is T1, Frataxin, mitochondrial (Homo sapiens) (UniProt Q16595).
T1 sequence (whole entry): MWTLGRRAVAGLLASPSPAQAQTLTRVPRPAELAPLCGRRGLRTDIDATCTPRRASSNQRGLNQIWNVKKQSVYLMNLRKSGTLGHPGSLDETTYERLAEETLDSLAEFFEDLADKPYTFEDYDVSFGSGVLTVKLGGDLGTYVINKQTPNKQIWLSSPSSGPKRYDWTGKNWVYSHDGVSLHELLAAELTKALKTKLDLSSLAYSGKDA
Nature of the test: Inhibition of frataxin ubiquitination in human HEK293 cells transiently co-transfected with HA-Ub and frataxin at 10 uM and measured after 48 hrs by Western blot analysis. The test is classed as cell-based. Background: Immunoblotting shows a protein as a band on a membrane.

Test [3] concerns the target T1, Frataxin, mitochondrial (Homo sapiens). Put plainly: Inhibition of recombinant frataxin (unknown origin) precursor degradation assessed as half-saturation binding constant (L1/2) and measured by fluorescence based assay.
The test system of test [4] is Lymphocyte. Nature of the test: Induction of frataxin accumulation in human FRDA-patient isolated lymphocyte at 10 uM assessed as increase in frataxin levels measured by Western blot analysis. The test is classed as functional, cell-based.
The test system of test [5] is Flp-In-293. Nature of the test: Induction of frataxin accumulation in human Flp-In-293 cells stably expressing frataxin at 10 uM assessed as increase in frataxin levels measured after 24 hrs by Western blot analysis. The test is classed as functional, cell-based.
Test [6] deals with Flp-In-293. Nature of the test: Induction of frataxin accumulation in human Flp-In-293 cells stably expressing frataxin at 10 uM assessed as increase in frataxin levels measured after 72 hrs by Western blot analysis. It counts as functional, cell-based.
Test [7] has as its system Lymphocyte. Put plainly: Induction of frataxin accumulation in human FRDA-patient isolated lymphocyte at 1 uM assessed as increase in frataxin levels measured after 4 days by Western blot analysis. It counts as functional, cell-based. The settings on record: time 4.0 day.
Test [8] has as its system Lymphocyte. Nature of the test: Rescue of aconitase activity in human FRDA-patient isolated lymphocyte at 10 uM […]. It counts as functional, cell-based.

`C/C(=N\NC(=O)c1ccc(C)cc1C)c1ccc2c(c1)Nc1ccccc1S2`: in the test on Flp-In-293 [1], the result was inactive. Besides, the inhibition entry in test [2] was “Active”. The K1/2 in test [3] is 2.9 µM. In addition, the outcome with Lymphocyte [4], with Flp-In-293 [5] and in the test on Flp-In-293 [6] was Active.
In the case of `C/C(=N\NC(=O)c1cc2ccccc2cc1O)c1ccc2c(c1)Nc1ccccc1S2`, the outcome with Flp-In-293 [1] was inactive. Besides, the inhibition entry in test [2] was “Active”. In addition, in the test on Flp-In-293 [5], the outcome was Active.
As to `COc1ccccc1C(=O)N/N=C(\C)c1ccc2c(c1)Nc1ccccc1S2`, the result in the test with Lymphocyte [7] was Active.
On to `C/C(=N\NC(=O)c1ccccc1)c1ccc2c(c1)Nc1ccccc1S2`, for which the outcome with Flp-In-293 [1] was inactive. Moreover, in test [3], the K1/2 is 2.3 µM. For the same compound, the result in the test on Lymphocyte [8], with Lymphocyte [4], with Flp-In-293 [5] and in the test with Flp-In-293 [6] was Active.
